Measurements from patent publication US12268747B2, “Polypeptides having anti-senescent effects and uses thereof” (OneSkin, Inc., priority 2019, dated 2025).
Peptide text beside a SMILES is read from it.

How the values were obtained:
[1] = test system: Human primary fibroblasts isolated from 3 healthy chronologically aged (elder) donors; test: 3-week exposure: SA-β-galactosidase senescence and proliferation; format: cell-based; conditions: 3.12 μM, counted at days 7, 14, 21, 28
Experimental: Human primary fibroblasts isolated from 3 healthy chronologically aged (elder) donors were used. These cells were cultured in DMEM (Dulbecco's Modified Eagle's Medium) supplemented with 10% v.v. fetal bovine serum (FBS), and 1% v.v. of penicillin/streptomycin solution (1,000 U·mL−1). Cells were kept in a 5% CO2, 37° C. and 95% humidity atmosphere. After expansion, these cells were seeded in T-75 flasks (250,000 cells per flask) and, 6 hours after plating, were incubated for 3 weeks (21 days) with Peptide 14 at 3.12 μM. A negative control comprised untreated cells, which received vehicle only. Day 0 was defined as the day cells started to be treated with Peptide 14. No Peptide 14 treatment was performed between days 21 and 28. Weekly, cellular senescence was assessed according to senescence associated β-galactosidase staining levels. Data was normalized to untreated group and plotted (FIG. 4, panel A). Cellular proliferation was also determined weekly. At days 7, 14, 21, and 28, cells were trypsinized and counted (FIG. 4, panel B). After counting, 250,000 cells were plated in new T-75 flasks. Three independent experiments (biological replicates) including three technical replicates were performed. Data was analyzed using T-test. Statistical significance was determined as p values equal or lower than 0.05.

[2] = test system: human primary fibroblasts isolated from 3 healthy donors, UVB exposed; test: UVB-induced senescence in fibroblasts; format: cell-based; conditions: 5 μM, 48 hours after UVB
Experimental: Cellular senescence may be caused by several different stimuli. In order to assess whether Peptide 14 was effective against UVB-induced and chemically-induced senescence, human primary fibroblasts isolated from 3 healthy donors were used. These cells were cultured in DMEM (Dulbecco's Modified Eagle's Medium) supplemented with 10% v.v. fetal bovine serum (FBS), and 1% v.v. of penicillin/streptomycin solution (1,000 U·mL−1). Cells were kept in a 5% CO2, 37° C. and 95% humidity atmosphere. After expansion, these cells were seeded in 96-well plates (4,000 cells per well) and, 6 hours after plating, were submitted to either etoposide (20 μM) treatment for 24 hours, or exposed twice to 0.05 J/cm^2 of UVB radiation. […] After incubation, relative cellular senescence (assessed by the activity of senescence associated β-galactosidase staining relative to untreated control) was analyzed and plotted in column graphs. ATRX foci were also assessed following ATRX immunofluorescence staining. Graphs were built using the average ATRX foci detected per nuclei. […] Data was analyzed using with either t-test or ANOVA followed by a Bonferroni post-hoc test. Statistical significance was determined as p-values equal or lower than 0.05 (FIG. 6).

Caenorhabditis elegans = test: C. elegans healthspan and lifespan; format: in vivo; conditions: 1 μM and 2 μM, no decrease in worm movement at either time point
Experimental: Senotherapeutic strategies can be linked to healthspan and lifespan extension in vivo. In order to assess whether Peptide 14 promotes extended healthspan and lifespan, Caenorhabditis elegans worms were used. Peptide 14 was added in the worm media (M9 buffer media) at different concentrations of 1 μM or 2 μM. Negative control worms received vehicle only. Two healthspan parameters were assessed i) pharyngeal pumping and ii) worm movement. Lifespan was also determined. For pharyngeal pumping analysis, 15 worms had their pharynx movement (pumping) observed daily and counted for 20 seconds. This experiment was repeated 3 times, by 2 different blind observers, employing different populations of animals at different days. Statistical difference was detected by analyzing each individual time point by One-Way ANOVA and Dunnet's post hoc test. All groups were compared with the H2O group. For worm movement analysis, the basic movement of C. elegans, also called thrashing, was measured daily for 15 worms. […] Statistical difference was detected by analyzing each individual time point by One-Way ANOVA and Dunnet's post hoc, and all groups were compared with the H2O group. […] The average lifespan was measured. Statistical difference was detected by analyzing each individual time point by One-Way ANOVA and Dunnet's post hoc, and all groups were compared with the H2O group (FIG. 18).

[3] = test system: Primary fibroblasts isolated from 3 healthy chronologically aged patients; test: SA-B-galactosidase senescence in fibroblasts of aged donors, concentration series; format: cell-based, human; conditions: 1.56-50 μM (Peptide 16: 1.56-25 μM), 48 hours; in at least one of the tested concentrations
Experimental: Primary fibroblasts isolated from 3 healthy chronologically aged patients were used. Cells were cultured in DMEM (Dulbecco's Modified Eagle's Medium) supplemented with 10% v.v. fetal bovine serum (FBS), and 1% v.v. of penicillin/streptomycin solution (1,000 U·mL−1). Cells were kept in a 5% CO2, 37° C. and 95% humidity atmosphere. After expansion, these cells were seeded in 96-well plates (4,000 cells per well) and, 6 hours after plating the cells were treated with one of 4 senotherapeutic polypeptides (Peptide 14, Peptide 13, Peptide 15, and Peptide 16) and incubated for 48 hours. Each polypeptide was tested at 6 different concentrations: 50 μM, 25 μM, 12.5 μM, 6.25 μM, 3.12 μM, and 1.56 μM, except for Peptide 16, which was tested at 5 different concentrations: 25 μM, 12.5 μM, 6.25 μM, 3.12 μM, and 1.56 μM. A negative control comprised untreated cells, which received vehicle only. After incubation, relative cellular senescence (assessed by the activity of senescence associated B-galactosidase staining relative to untreated control) was analyzed (FIG. 2, panels A-D), in which the Y axis indicates the relative senescence levels normalized to untreated control. Each column corresponds to a different concentration of a polypeptide. Three independent experiments (biological replicates) including three technical replicates were performed. Data was analyzed using Analysis of Variance (ANOVA) and a Bonferroni post-hoc tests. Statistical significance was determined as p values equal or lower than 0.05.

pAkt S473 = test: Akt S473 phosphorylation western blot in human skin equivalents; format: cell-based; conditions: 1 μM, 5 days
Experimental: (§1) In order to shed light into the mechanism of action of Peptide 14 and similar Peptide 13, Akt S473 phosphorylation (FIG. 8, panel A), senescence associated β-galactosidase staining (FIG. 8, panel B), as well as mRNA expression (FIG. 8, panel C) were investigated. For Akt S473 phosphorylation analysis using western blotting, human primary fibroblasts and keratinocytes were used. These cells were used to build human skin equivalents, which were kept in a 5% CO2, 37° C. and 95% humidity atmosphere air liquid interface. Then, skin equivalents were treated with 1 μM of either Peptide 14 or Peptide 13 for 5 days, and protein analysis was performed on the skin equivalents. Protein was isolated and quantified. Equal amounts of protein were loaded in polyacrylamide gels and transferred into a nitrocellulose membrane. […] Relative pAkt S473/GAPDH signal was compared between treated and non-treated samples. For senescence associated B-galactosidase staining experiments, fibroblasts were used. […] Total RNA was isolated, samples were reverse transcribed, and mRNA expression of GAPDH, sirtuin 6 (SIRT6), BLM, and exonuclease 1 (EXO1) genes were determined using qPCR. […] CT values were analyzed using the 2^−ΔΔCt method. […] Data was analyzed using a T-test. Statistical significance was determined as p values equal or lower than 0.05 (FIG. 8).

fibroblasts, UVB exposed = test: SA-B-galactosidase staining in UVB-exposed fibroblasts (Example 8); format: cell-based, human; conditions: 48 hours after UVB 2 x 0.05 J/cm^2
Experimental: as §1

[4] = test system: human skin equivalents from elder donors; test: Human skin equivalents: histology score and morphology (Example 18); format: cell-based; conditions: 0.01% w/v (or 1 μM), 5 days; vehicle control 21.00
Experimental: To test the effect of Peptide 13 and Peptide 14 treatment on human skin models and the skin morphology, human primary fibroblasts and keratinocytes isolated from healthy elder donors were used to build human skin equivalents. The skin equivalents were treated with 0.01% w/v (or 1 μM) of Peptide 13 or Peptide 14 for 5 days. The negative controls were treated with formulation only. After the 5-day culture, the skin equivalents were analyzed for epidermal thickness, which was quantified according to total epidermal area. Quality assessment based several parameters was performed by blind analysts. […] A minimal score of 19 was required for batch use. This score was validated internally and shown to decrease with age/senescence of the skin equivalents or cultured cells. Three independent experiments were performed with three technical replicates. Data were analyzed using a t-test. Statistical significance was determined as p-values equal or lower than 0.05. The statistically significant p-values are noted by * for p<0.05; ** for p<0.01; *** for p<0.001; **** for p<0.0001 between the groups.

[5] = test system: p16, BLIMP1, ZYG11B, IL-8, Ki-67, ZIC1, MMP1, HAS2 mRNA in 3D skin equivalents; test: 3D skin equivalents: relative mRNA expression of senescence, aging and health markers; format: cell-based, human
Experimental: 3D skin equivalent sections of samples built with cells from elder donors ([…]) were treated with 1 μM Peptide 14 or Peptide 13, or 20 μM Retinoic Acid (RA) and assessed for the effect of the various treatments of various markers of senescence, aging, and health.
Data are presented as 2-ddCt normalized to GAPDH and untreated control. *p<0.05. Peptide 13 and Peptide 14-treated samples generally had similar relative mRNA expression levels for p16, BLIMP1, ZYG11B, IL-8, and Ki-67 in the epidermal layer, and for p16, MMP1, HAS2, IL-8, and Ki-67 in the dermal layer. Peptide 13 and Peptide 14-treated samples generally had lower relative mRNA expression levels than RA-treated samples for p16, BLIMP1, ZYG11B, IL-8, in the epidermal layer and for p16, MMP1, IL-8, and Ki-67 in the dermal layer. Peptide 13 and Peptide 14-treated samples generally had higher relative mRNA expression levels than RA-treated samples for Ki-67 in the epidermal layer and for HAS2 for the dermal layer. Peptide 13 and Peptide 14-treated samples had similar relative mRNA expression levels as RA-treated samples for ZIC1 and Ki-67 for dermal layer.

[6] = 1 μM peptide vs 20 μM Retinoic Acid

| relative cellular senescence (SA-B-galactosidase staining) vs untreated control [3] | SA-B-galactosidase staining in UVB-exposed samples (fibroblasts, UVB exposed) | relative mRNA, Peptide 13 vs Peptide 14: p16, BLIMP1, ZYG11B, IL-8, Ki-67 (epidermal); p16, MMP1, HAS2, IL-8, Ki-67 (dermal) ([5]; 1 μM each) | relative mRNA vs RA-treated samples: Ki-67 (epidermal), HAS2 (dermal) [5, 6] | relative mRNA vs RA-treated samples: ZIC1 and Ki-67 (dermal) [5, 6] | relative mRNA vs RA-treated samples: p16, BLIMP1, ZYG11B, IL-8 (epidermal); p16, MMP1, IL-8, Ki-67 (dermal) [5, 6] | Compound | cell proliferation vs untreated control [1] | cell number [2] | toxicity to C. elegans (worm movement) (Caenorhabditis elegans) | pAkt S473 in dermal samples (pAkt S473) | pAkt S473 in epidermal samples (pAkt S473) | mean of histology scores (maximum 28) [4] |
| --- | --- | --- | --- | --- | --- | --- | --- | --- | --- | --- | --- | --- |
| – | – | – | – | – | – | CC[C@H](C)[C@H](NC(=O)CNC(=O)[C@H](CCCCN)NC(=O)[C@H](CC(C)C)NC(=O)[C@H](Cc1c[nH]c2ccccc12)NC(=O)[C@H](Cc1c[nH]cn1)NC(=O)[C@H](CCCCN)NC(=O)[C@H](C)NC(=O)[C@@H](NC(=O)[C@@H](N)CCC(=O)O)[C@@H](C)O)C(=O)O [Peptide 14, ETAKHWLKGI] (H-ETAKHWLKGI-OH; N-terminus and C-terminus assumed) | No significant differences | did not significantly alter | not toxic | – | – | – |
| senotherapeutic effects | decreased staining | similar | higher | similar | lower | ATAKAWLKGI [Peptide 13] | – | – | – | decreased | dermal samples only | 23.44 |
